In patent US5801152A, “Antracycline disaccharides, process for their preparation, and pharmaceutical compositions containing them” (A. Menarini Industrie Farmaceutiche Riunite S.r.l., priority 1993, dated 1998):
Converted amounts (≈) assume the structure as drawn. Counter-ions that a name gives are not always drawn. Like-named read-outs stand apart in the source and are kept apart here.

Assays:
[1] = system: LOVO (colon) cells; experiment: Cytotoxic activity in vitro, MTT assay, LOVO (colon); format: cell-based; conditions: Homo sapiens
Description: (§1) was tested, in comparison with doxorubicin, against a variety of human tumors of different histotypes including ovarian carcinoma, lung cancer , breast cancer, cervical carcinoma, colon cancer.
(§2) Cell survival, following test compound exposure, was evaluated by the growth inhibition test, with the exception of small cell lung cancer cell lines (SCLC). Cells in the logarithmic phase of growth were harvested and placed into 6-well. Twenty-four h after seeding, cells were exposed to test compounds for different times. After replacement with drug-free medium, cells were harvested and counted 72 h following compound exposure. In the case of SCLC, MCF-7 and LOVO, the MTT assay has been used and the colorimetric evaluation of survival was performed at the end of the incubation time (24 or 96 h). The results obtained from cytotoxicity experiments are expressed as IC50 (i.e., concentration required for 50% inhibition of cell growth).
(§3) The test compounds were dissolved in distilled water and then diluted in culture medium.

[2] = system: MCF-7 (breast) cells; experiment: Cytotoxic activity in vitro, MTT assay, MCF-7 (breast); format: cell-based; conditions: Homo sapiens
Description: as §1, §2, §3

[3] = system: A431 (cervix) cells; experiment: Cytotoxic activity in vitro, growth inhibition test, A431 (cervix); format: cell-based; conditions: Homo sapiens
Description: as §1, §2, §3

[4] = system: A2780 (ovarian) cells; experiment: Cytotoxic activity in vitro, growth inhibition test, A2780 (ovarian); format: cell-based; conditions: Homo sapiens
Description: as §1, §2, §3

[5] = system: H-460 (non-small cell lung cancer) cells; experiment: Cytotoxic activity in vitro, growth inhibition test, H-460 (non-small cell lung cancer); format: cell-based; conditions: Homo sapiens
Description: as §1, §2, §3

[6] = system: POVD (small cell lung cancer) cells; experiment: Cytotoxic activity in vitro, MTT assay, POVD (small cell lung cancer); format: cell-based; conditions: Homo sapiens
Description: as §1, §2, §3

[7] = system: human ovarian carcinoma A2780; experiment: Effect against human ovarian carcinoma A2780 (in vivo), athymic mice; design: species or system human tumor in athymic mice; conditions: for antitumor activity compared with doxorubicin (in words): against A2780 ovarian carcinoma; for toxicity deaths / tumor inhibition (Tumor Weight Inhibition %, TWI%): i.v., optimal dose: DXR 7 mg/Kg, IIa 8.5 mg/Kg (days 11, 18, 25), IIc 5 mg/Kg (days 11, 15, 18, 21, 25); for tumor inhibition (Tumor Weight Inhibition %, TWI%): determined 7-10 days after last treatment
Description: (§4) For in vivo studies athymic mice were injected subcutaneous with tumor fragments in both flanks. Growth of tumors was followed by twice weekly caliper measurement of length and width. Tumor weight was calculated using the formula: mg=volume in mm^3 =width^2 ×length/2 (considering density=1).
(§5) The test compounds were delivered, at the optimal doses and schedules, intravenously (i.v.) to tumor-bearing mice starting at different times in the different tumors using (see experiments for details). The effects achieved by the treatments were expressed as Tumor Weight Inhibition % (TWI%) in treated versus control mice, determined 7-10 days after the last drug treatment.

[8] = system: human small cell lung carcinoma POVD; experiment: Effect against human small cell lung carcinoma POVD (in vivo), athymic mice; design: species or system human tumor in athymic mice; conditions: for antitumor activity (in words): SCLC tumor POVD; for toxicity deaths / tumor inhibition (Tumor Weight Inhibition %, TWI%): i.v., optimal dose: DXR 7 mg/Kg, IIa 8.5 mg/Kg (days 10, 17, 24), IIc 5 mg/Kg (days 10, 14, 17, 21, 24); for tumor inhibition (Tumor Weight Inhibition %, TWI%): determined 7-10 days after last treatment
Description: as §4, §5

[9] = LOVO (colon), drug exposure 24 h, read-out: IC50
[10] = MCF7, MCF-7 (breast), drug exposure 24 h, read-out: IC50
[11] = A-431, A431 (cervix), drug exposure 24 h, read-out: IC50
[12] = A2780 (ovarian), drug exposure 24 h, read-out: IC50
[13] = NCI-H460, H-460 (non-small cell lung cancer), drug exposure 24 h, read-out: IC50
[14] = POVD (small cell lung cancer), drug exposure 96 h, read-out: IC50

In the case of `C[C@@H]1O[C@@H](O[C@@H]2[C@H](C)O[C@@H](O[C@H]3C[C@](O)(C(=O)CO)Cc4c(O)c5c(c(O)c43)C(=O)c3ccccc3C5=O)C[C@@H]2O)C[C@H](N)[C@@H]1O` [IIc, 7-0-[2,6-dideoxy-4-0-(2,3,6-trideoxy-3amino-a-L-lyxo-exopyranosyl)-a-L-lyxo-exopyranosyl]-4-demethoxy-doxorubicinone hydrochloride], the IC50 [1, 9] is reported as 0.01 µg/mL, the IC50 [2, 10] is reported as 0.0056 µg/mL and the IC50 [3, 11] is reported as 0.016 µg/mL. The IC50 [4, 12] was 0.005 µg/mL, the IC50 [5, 13] was 0.01 µg/mL and the IC50 [6, 14] was 0.011 µg/mL. The “antitumor activity compared with doxorubicin (in words)” value [7] was “antitumor activity greatly superior to that of the parent compund”, the toxicity deaths [7] was 0/5 and the “tumor inhibition (Tumor Weight Inhibition %, TWI%)” value [7] was 99%. For the same compound, the “antitumor activity (in words)” value [8] was “very high antitumor activity”, the toxicity deaths [8] was 0/5 and the “tumor inhibition (Tumor Weight Inhibition %, TWI%)” value [8] was 91%.
Work on `COc1cccc2c1C(=O)c1c(O)c3c(c(O)c1C2=O)C[C@@](O)(C(=O)CO)C[C@@H]3O[C@H]1C[C@H](N)[C@H](O)[C@H](C)O1` [DXR, doxorubicin, reference compound] yielded an IC50 ([1]; LoVo, 24 h) of 0.01 µg/mL (≈ 0.0184 µM), an IC50 ([2]; MCF7, 24 h) of 0.01 µg/mL (≈ 0.0184 µM) and an IC50 ([3]; A-431, 24 h) of 0.036 µg/mL (≈ 0.0662 µM). It also gave an IC50 ([4]; A2780, 24 h) of 0.03 µg/mL (≈ 0.0552 µM), an IC50 ([5]; NCI-H460, 24 h) of 0.02 µg/mL (≈ 0.0368 µM) and an IC50 ([6]; 96 h) of 0.034 µg/mL (≈ 0.0626 µM). For the same compound, the toxicity deaths [7] was 0/5, the “tumor inhibition (Tumor Weight Inhibition %, TWI%)” value [7] was 68% and the “antitumor activity (in words)” value [8] was “refractory”. The toxicity deaths [8] was 0/5 and the “tumor inhibition (Tumor Weight Inhibition %, TWI%)” value [8] was 44%.
Work on `CC(=O)[C@]1(O)Cc2c(O)c3c(c(O)c2[C@@H](O[C@H]2C[C@H](O)[C@H](O[C@H]4C[C@H](N)[C@H](O)[C@H](C)O4)[C@H](C)O2)C1)C(=O)c1ccccc1C3=O` [IIa, 7-0-[2,6-dideoxy-4-0-(2,3,6-trideoxy-3-amino-a-L-lyxo-exopyranosyl)-a-L-lyxo-exopyranosyl]-4-demethoxy-daunorubicinone hydrochloride] yielded an IC50 [1, 9] of 0.0065 µg/mL, an IC50 [2, 10] of 0.01 µg/mL and an IC50 [3, 11] of 0.012 µg/mL. For the same compound, the IC50 [4, 12] was 0.001 µg/mL, the IC50 [5, 13] was 0.015 µg/mL and the IC50 [6, 14] was 0.015 µg/mL. The “antitumor activity compared with doxorubicin (in words)” value [7] was “at least the same effectiveness than doxorubicin”, the toxicity deaths [7] was 0/5 and the “tumor inhibition (Tumor Weight Inhibition %, TWI%)” value [7] was 75%. The “antitumor activity (in words)” value [8] was “very high antitumor activity”, the toxicity deaths [8] was 0/5 and the “tumor inhibition (Tumor Weight Inhibition %, TWI%)” value [8] was 80%.
For `C[C@@H]1O[C@@H](O[C@@H]2[C@H](C)O[C@@H](O[C@H]3C[C@](O)(C(=O)CO)Cc4c(O)c5c(c(O)c43)C(=O)c3ccccc3C5=O)C[C@@H]2O)C[C@H](O)[C@@H]1O` [IIb, 7-0-[2,6-dideoxy-4-0-(2,6-dideoxy-a-L-lyxo-exopyranosyl)-a-L-lyxo-exopyranosyl]-4-demethoxy-doxorubicinone hydrochloride], the IC50 [1, 9] was 0.0085 µg/mL, the IC50 [2, 10] was 0.015 µg/mL and the IC50 [3, 11] was 0.026 µg/mL. For the same compound, the IC50 [4, 12] was 0.01 µg/mL, the IC50 [5, 13] was 0.018 µg/mL and the IC50 [6, 14] was 0.02 µg/mL.
